Data reported in the supplement of paper PMC6045584.
± gives the standard deviation of the averaged measurements.

What was measured:
CANERTINIB = compound: C=CC(=O)Nc1cc2c(Nc3ccc(F)c(Cl)c3)ncnc2cc1OCCCN1CCOCC1 [CANERTINIB]; assay: surviving fraction relative to DMSO-only wells; higher = less growth inhibition; conditions: exposure time: 5 days
In short: (§1)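 At 250–500 cells per well in 384-well plates, log-phase tumour cell lines were seeded and, 24 hours on, exposed continuously for five days to inhibitors at 0.5, 1, 5, 10, 50, 100, 500 and 1000 nM. Viability readout was CellTiter-Glo luminescence, reported as surviving fraction normalised to the median of DMSO-only wells.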

SNX-5422 = compound: CC1(C)CC(=O)c2c(C(F)(F)F)nn(-c3ccc(C(N)=O)c(N[C@H]4CC[C@H](OC(=O)CN)CC4)c3)c2C1 [SNX-5422]; assay: as above; conditions: exposure time: 5 days
In short: as §1

Test System	surviving fraction (CANERTINIB; 0.5 nM)	surviving fraction (CANERTINIB; 1 nM)	surviving fraction (CANERTINIB; 5 nM)	surviving fraction (CANERTINIB; 10 nM)	surviving fraction (CANERTINIB; 50 nM)	surviving fraction (CANERTINIB; 100 nM)	surviving fraction (CANERTINIB; 500 nM)	surviving fraction (CANERTINIB; 1000 nM)	surviving fraction (SNX-5422; 0.5 nM)	surviving fraction (SNX-5422; 1 nM)	surviving fraction (SNX-5422; 5 nM)	surviving fraction (SNX-5422; 10 nM)	surviving fraction (SNX-5422; 50 nM)	surviving fraction (SNX-5422; 100 nM)	surviving fraction (SNX-5422; 500 nM)	surviving fraction (SNX-5422; 1000 nM)
HCC1395 BREAST	0.955 ± 0.095	0.901 ± 0.022	1 ± 0.15	0.905 ± 0.059	1.13 ± 0.068	1.05 ± 0.021	1.06 ± 0.11	1.01 ± 0.066	0.865 ± 0.17	0.862 ± 0.071	0.943 ± 0.15	1.16 ± 0.23	0.975 ± 0.15	1.15 ± 0.066	0.818 ± 0.1	0.893 ± 0.05
YAMATO SYNOVIAL	0.878 ± 0.19	0.857 ± 0.088	0.909 ± 0.065	0.938 ± 0.091	1.27 ± 0.1	1.28 ± 0.067	1.06 ± 0.083	1.1 ± 0.074	1.2 ± 0.21	1.15 ± 0.13	1.23 ± 0.096	1.17 ± 0.086	0.971 ± 0.21	0.339 ± 0.031	0.318 ± 0.028	0.382 ± 0.031
CAL72 BONE	0.982 ± 0.056	0.989 ± 0.067	0.979 ± 0.058	0.969 ± 0.052	1.02 ± 0.2	1.11 ± 0.037	1.03 ± 0.1	1.08 ± 0.053	1.033 ± 0.0045	1.06 ± 0.022	1.077 ± 0.01	1.08 ± 0.046	0.208 ± 0.027	0.294 ± 0.038	0.0867 ± 0.014	0.0977 ± 0.0057
93VU HEADNECK	0.784 ± 0.029	0.787 ± 0.065	0.86 ± 0.034	0.698 ± 0.042	1.07 ± 0.053	0.738 ± 0.062	0.63 ± 0.02	0.312 ± 0.044	1.14 ± 0.02	1.15 ± 0.029	1.31 ± 0.069	1.24 ± 0.085	0.648 ± 0.074	0.199 ± 0.041	0.0953 ± 0.0047	0.0957 ± 0.012
MCF7 BREAST	0.838 ± 0.027	0.831 ± 0.023	0.818 ± 0.02	0.79 ± 0.018	0.888 ± 0.02	0.859 ± 0.039	0.854 ± 0.082	0.808 ± 0.026	0.9 ± 0.094	0.925 ± 0.068	0.94 ± 0.066	0.906 ± 0.07	0.627 ± 0.02	0.465 ± 0.011	0.303 ± 0.015	0.321 ± 0.01
S68 BREAST	0.642 ± 0.11	0.813 ± 0.21	0.748 ± 0.3	0.793 ± 0.04	1.04 ± 0.22	1.01 ± 0.12	0.636 ± 0.091	0.425 ± 0.12	0.798 ± 0.3	1.09 ± 0.27	0.891 ± 0.2	0.913 ± 0.18	0.154 ± 0.019	0.128 ± 0.021	0.06 ± 0.0035	0.0703 ± 0.0051
HSSYII SYNOVIAL	0.809 ± 0.039	0.794 ± 0.015	0.814 ± 0.053	0.855 ± 0.037	0.889 ± 0.033	0.868 ± 0.011	0.724 ± 0.031	0.631 ± 0.021	0.976 ± 0.035	0.979 ± 0.042	1.09 ± 0.04	0.977 ± 0.0066	0.23 ± 0.015	0.152 ± 0.0056	0.0738 ± 0.003	0.0662 ± 0.0051
JIMT1 BREAST	0.896 ± 0.02	0.904 ± 0.029	0.94 ± 0.029	0.911 ± 0.021	0.968 ± 0.021	0.897 ± 0.042	0.633 ± 0.041	0.541 ± 0.042	0.994 ± 0.017	0.973 ± 0.032	1.01 ± 0.026	1.01 ± 0.015	0.792 ± 0.0081	0.271 ± 0.029	0.0693 ± 0.0067	0.0723 ± 0.0026
LM7 BONE	0.739 ± 0.015	0.657 ± 0.0061	0.791 ± 0.019	0.75 ± 0.012	0.88 ± 0.044	0.872 ± 0.085	0.655 ± 0.026	0.536 ± 0.027	1 ± 0.11	0.896 ± 0.075	0.946 ± 0.059	0.904 ± 0.077	0.294 ± 0.028	0.176 ± 0.0099	0.0897 ± 0.0035	0.0873 ± 0.01
RDES SOFT TISSUE	0.774 ± 0.16	0.858 ± 0.12	0.707 ± 0.049	0.713 ± 0.19	0.903 ± 0.063	1.06 ± 0.14	1.09 ± 0.032	0.921 ± 0.21	1.13 ± 0.087	1.28 ± 0.15	1.07 ± 0.039	1.14 ± 0.19	0.459 ± 0.056	0.367 ± 0.053	0.056 ± 0.0095	0.0543 ± 0.0085
MDAMB134 BREAST	0.622 ± 0.012	0.659 ± 0.074	0.562 ± 0.0064	0.577 ± 0.0092	0.767 ± 0.12	0.831 ± 0.022	0.868 ± 0.066	0.718 ± 0.016	0.902 ± 0.096	1.17 ± 0.23	0.892 ± 0.26	0.956 ± 0.052	0.789 ± 0.098	0.884 ± 0.036	0.543 ± 0.0057	0.54 ± 0.12
HOS BONE	0.955 ± 0.029	0.923 ± 0.011	0.932 ± 0.031	0.915 ± 0.019	1.01 ± 0.012	1.01 ± 0.026	0.935 ± 0.011	0.914 ± 0.014	1.01 ± 0.015	1.04 ± 0.039	1.08 ± 0.016	1.04 ± 0.031	0.028 ± 0.001	0.051 ± 0.0078	0.0377 ± 0.0011	0.0417 ± 0.0021
MDAMB436 BREAST	0.798 ± 0.056	0.875 ± 0.064	0.854 ± 0.065	0.839 ± 0.061	0.956 ± 0.094	0.98 ± 0.13	0.839 ± 0.054	0.742 ± 0.067	0.91 ± 0.056	0.873 ± 0.066	0.892 ± 0.044	0.903 ± 0.12	0.471 ± 0.016	0.305 ± 0.0098	0.316 ± 0.013	0.326 ± 0.011
LNCAP PROSTATE	1.1 ± 0.078	1 ± 0.059	1.09 ± 0.06	1.08 ± 0.036	1.01 ± 0.057	1.04 ± 0.055	0.935 ± 0.093	0.782 ± 0.086	0.905 ± 0.09	0.969 ± 0.13	0.79 ± 0.043	0.774 ± 0.12	0.19 ± 0.022	0.124 ± 0.0057	0.05 ± 0.004	0.06 ± 0.0072
143B BONE	1.05 ± 0.044	1.04 ± 0.057	1.05 ± 0.038	1.06 ± 0.061	1.08 ± 0.047	1.07 ± 0.039	1.04 ± 0.067	0.984 ± 0.073	1 ± 0.056	0.985 ± 0.0099	1.02 ± 0.037	0.996 ± 0.0057	0.365 ± 0.016	0.149 ± 0.0028	0.087 ± 0.0071	0.091 ± 0.011
HT1080 SOFT TISSUE	1.02 ± 0.015	1.05 ± 0.03	0.9963 ± 0.0099	0.997 ± 0.0076	1.019 ± 0.0087	0.987 ± 0.031	0.982 ± 0.058	0.97 ± 0.038	1.02 ± 0.016	1.03 ± 0.0021	1.062 ± 0.0015	1.155 ± 0.01	0.414 ± 0.034	0.238 ± 0.011	0.121 ± 0.007	0.12 ± 0.01
SUM149.B1*.S BREAST	0.921 ± 0.016	0.941 ± 0.015	0.933 ± 0.026	0.917 ± 0.048	0.956 ± 0.028	0.972 ± 0.018	0.868 ± 0.055	0.805 ± 0.029	1.06 ± 0.037	1.12 ± 0.032	1.09 ± 0.021	1.08 ± 0.037	0.385 ± 0.022	0.226 ± 0.017	0.0997 ± 0.0045	0.0978 ± 0.0067
CAL120 BREAST	0.903 ± 0.055	0.91 ± 0.063	0.91 ± 0.08	0.902 ± 0.036	0.921 ± 0.087	0.928 ± 0.046	0.795 ± 0.092	0.597 ± 0.021	0.993 ± 0.019	0.946 ± 0.034	0.962 ± 0.057	0.875 ± 0.057	0.149 ± 0.013	0.132 ± 0.0094	0.083 ± 0.0092	0.0862 ± 0.0052
HOSMNG BONE	0.92 ± 0.04	0.978 ± 0.014	1.003 ± 0.0067	1.01 ± 0.055	1.08 ± 0.12	1.11 ± 0.1	1.04 ± 0.025	1.11 ± 0.016	1.02 ± 0.017	1 ± 0.036	1.01 ± 0.04	0.973 ± 0.018	0.964 ± 0.084	0.299 ± 0.061	0.12 ± 0.012	0.108 ± 0.0047
MDAMB453 BREAST	1.04 ± 0.026	1 ± 0.016	1.01 ± 0.058	1.01 ± 0.071	1.02 ± 0.047	1.07 ± 0.026	0.823 ± 0.0089	0.637 ± 0.067	1.02 ± 0.034	1.08 ± 0.036	1.08 ± 0.028	1.08 ± 0.037	0.458 ± 0.055	0.254 ± 0.016	0.0493 ± 0.013	0.0633 ± 0.017
